Laboratory results as given in PubChem BioAssay AID2060484 (Molecular Pharmacology Branch, DTP, NCI, 2025).

Test system: SUM149PT spheroids with HUVEC/MSC, viability
Experiment: Anticancer human tumor SUM149PT cell line growth inhibition [GQUAD];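 also: spheroids exposed to drugs for seven days before readout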;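 as to viability, T/C: percent viability relative to DMSO vehicle control taken as 100%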
Details: for IC50: curve of first compound; for viability, T/C: stronger effect = lower value
Source text: DNA G-quadruplex Stabilizer Agents in Combinations in Complex Spheroids
A high-throughput screen of multi-cell type tumor spheroids was designed to identify active combinations of DNA G-quadruplex stabilizer agents and targeted small molecules. Complex spheroids include a stromal component modeled by human endothelial cells (HUVEC) and fibroblasts modeled by human mesenchymal stem cells (MSCs). The concentration ranges selected for each drug and investigational agent were based upon clinically achievable concentrations if the clinical Cmax of the agent was known.
Compounds. The drugs and investigational agents: pidnarulex (CX-5461; NSC782164), APTO-253 (NSC789042), BRACO-19 (NSC847499), peposertib (NSC802822), ceralasertib (NSC780249), elimusertib (NSC800525), camonsertib (NSC841442), AZD-1390 (NSC803789), olaparib (NSC753686), talazoparib (NSC767125), ART-558 (NSC835418), sotorasib (NSC818433), MRTX-1133 (NSC836407), SN-38 (NSC673596), topotecan (NSC609699), etoposide (NSC141540), doxorubicin (NSC123127), gemcitabine (NSC613327), 5-fluorouracil (NSC19893), paclitaxel (NSC125973), vemurafenib (NSC761431), panobinostat (NSC761190), R-306465 (JNJ-16241199; NSC773264), adavosertib (NSC754352), TP-3654 (NSC805149), carboplatin (NSC241240), KSQ-4279 (NSC840948), and staurosporine (NSC755774) were obtained from the National Cancer Institute (NCI) Developmental Therapeutics Program Chemical Repository (34). The FDA-approved anticancer drug set is available from the NCI Developmental Therapeutics Program. […] The stock solutions were prepared in dimethyl sulfoxide (DMSO, Sigma-Aldrich, St. Louis, MO, cat. D2650) at 800-fold the tested concentration and stored at -70 degrees C prior to their use. All drugs and investigational agents were tested over a range starting from a high concentration at or near the clinical Cmax and decreasing in half-log increments. If the clinical Cmax for an agent had not been determined, the highest concentration tested was 10 microM.
2.3 Cell Culture. All cells were maintained in an incubator at 37 degrees C and 5% CO2 with 95% humidity. The PDC lines were cultured according to standard operating procedures established by the NCI PDMR. All PDCs were thawed and cultured in Matrigel-coated flasks prepared with a working solution of 1X Ham's F-12 nutrient mix, without supplementation (Invitrogen, cat. 11765054), 100 U/mL penicillin-streptomycin (Invitrogen, cat. 15140122), and 2.5% Matrigel (Corning Inc., cat. 354248) for the first three passages. The 857933-349-R-J2-PDC line was cultured in 6C/Colon 1B media, which includes advanced DMEM/F-12 (Thermo Fisher Scientific, cat. 12634028), 10 mM HEPES (Thermo Fisher Scientific, cat. 15630080), 1X GlutaMAX supplement (Thermo Fisher Scientific, cat. 35050061), 0.1 mg/mL primocin (InvivoGen, cat. ant-pm-2), 10% defined fetal bovine serum, heat inactivated (HyClone Laboratories Inc., cat. SH30070.03HI), 50% L-WRN conditioned media (ATCC, cat. CRL-3276), 1.25 mM N-Acetyl-L-cysteine (Sigma-Aldrich, cat. A9165), 10 mM nicotinamide (Sigma-Aldrich, cat. N0636), 1X B-27 supplement (Thermo Fisher Scientific, cat. 17504044), 1X N-2 supplement (Thermo Fisher Scientific, cat. 17502048), 10 microM Y-27632 dihydrochloride (Tocris Bioscience, cat. 1254), and 50 ng/mL human EGF recombinant protein (Thermo Fisher Scientific, cat. PHG0311). The 485176-168-R4-J1-PDC line was cultured in Panc media, which includes all 6C/Colon 1B media components plus 100 ng/mL human FGF-10 (Thermo Fisher Scientific, cat. 100-26), 500 nM SB-431542 (Selleckchem, cat. S1067), and gastrin (Tocris, cat. 3006).
[…]

[1] = second compound 0.0316 µM, first compound 0.0316 µM
[2] = second compound 0.0316 µM, first compound 0.1 µM
[3] = second compound 0.0316 µM, first compound 0.316 µM
[4] = second compound 0.0316 µM, first compound 1 µM
[5] = second compound 0.0316 µM, first compound 3.16 µM
[6] = second compound 0.0316 µM, first compound 10 µM
[7] = second compound 0.1 µM, first compound 0.0316 µM
[8] = second compound 0.1 µM, first compound 0.1 µM
[9] = second compound 0.1 µM, first compound 0.316 µM
[10] = second compound 0.1 µM, first compound 1 µM
[11] = second compound 0.1 µM, first compound 3.16 µM
[12] = second compound 0.1 µM, first compound 10 µM
[13] = second compound 0.316 µM, first compound 0.0316 µM
[14] = second compound 0.316 µM, first compound 0.1 µM
[15] = second compound 0.316 µM, first compound 0.316 µM
[16] = second compound 0.316 µM, first compound 1 µM
[17] = second compound 0.316 µM, first compound 3.16 µM
[18] = second compound 0.316 µM, first compound 10 µM
[19] = second compound 1 µM, first compound 0.0316 µM
[20] = second compound 1 µM, first compound 0.1 µM
[21] = second compound 1 µM, first compound 0.316 µM
[22] = second compound 1 µM, first compound 1 µM
[23] = second compound 1 µM, first compound 3.16 µM
[24] = second compound 1 µM, first compound 10 µM
[25] = second compound 3.16 µM, first compound 0.0316 µM
[26] = second compound 3.16 µM, first compound 0.1 µM
[27] = second compound 3.16 µM, first compound 0.316 µM
[28] = second compound 3.16 µM, first compound 1 µM
[29] = second compound 3.16 µM, first compound 3.16 µM
[30] = second compound 3.16 µM, first compound 10 µM
[31] = second compound 10 µM, first compound 0.0316 µM
[32] = second compound 10 µM, first compound 0.1 µM
[33] = second compound 10 µM, first compound 0.316 µM
[34] = second compound 10 µM, first compound 1 µM
[35] = second compound 10 µM, first compound 3.16 µM
[36] = second compound 10 µM, first compound 10 µM

COc1cccc2c1C(=O)c1c(O)c3c(c(O)c1C2=O)CC(O)(C(=O)CO)CC3OC1CC(N)C(O)C(C)O1 (centres undefined) + Cc1[nH]c2ccc(F)cc2c1-c1nc2c3cccnc3c3ncccc3c2[nH]1
IC50 (second compound 0.0316 µM): 0.204 µM | IC50 (second compound 0.1 µM): 0.203 µM | IC50 (second compound 0.316 µM): 0.19 µM | IC50 (second compound 1 µM): 0.201 µM | IC50 (second compound 3.16 µM): 0.171 µM | IC50 (second compound 10 µM): 0.145 µM | viability, T/C [1]: 91.3% | viability, T/C [2]: 62.5% | viability, T/C [3]: 44.3% | viability, T/C [4]: 19.1% | viability, T/C [5]: 2.87% | viability, T/C [6]: 0.48% | viability, T/C [7]: 91.1% | viability, T/C [8]: 62.1% | viability, T/C [9]: 45.2% | viability, T/C [10]: 16.8% | viability, T/C [11]: 2.57% | viability, T/C [12]: 1.39% | viability, T/C [13]: 84.3% | viability, T/C [14]: 60.2% | viability, T/C [15]: 43% | viability, T/C [16]: 18.9% | viability, T/C [17]: 3.58% | viability, T/C [18]: 1.15% | viability, T/C [19]: 94.7% | viability, T/C [20]: 61.9% | viability, T/C [21]: 44.7% | viability, T/C [22]: 19.4% | viability, T/C [23]: 2.12% | viability, T/C [24]: 1.25% | viability, T/C [25]: 82.6% | viability, T/C [26]: 58.5% | viability, T/C [27]: 40.8% | viability, T/C [28]: 16.7% | viability, T/C [29]: 4.43% | viability, T/C [30]: 1.38% | viability, T/C [31]: 90.3% | viability, T/C [32]: 54% | viability, T/C [33]: 39.5% | viability, T/C [34]: 15.7% | viability, T/C [35]: 3.44% | viability, T/C [36]: 0.4%

COc1cc(C2c3cc4c(cc3C(OC3OC5COC(C)OC5C(O)C3O)C3COC(=O)C23)OCO4)cc(OC)c1O (centres undefined) + CN(C)c1ccc(Nc2c3ccc(NC(=O)CCN4CCCC4)cc3nc3cc(NC(=O)CCN4CCCC4)ccc23)cc1
IC50 (second compound 0.0316 µM): 1.27 µM | IC50 (second compound 0.1 µM): 1.26 µM | IC50 (second compound 0.316 µM): 1.31 µM | IC50 (second compound 1 µM): 0.732 µM | IC50 (second compound 3.16 µM): 0.652 µM | IC50 (second compound 10 µM): 0.619 µM | viability, T/C [1]: 107% | viability, T/C [2]: 84.8% | viability, T/C [3]: 62.9% | viability, T/C [4]: 55.2% | viability, T/C [5]: 44.8% | viability, T/C [6]: 21.6% | viability, T/C [7]: 102% | viability, T/C [8]: 88.8% | viability, T/C [9]: 59.5% | viability, T/C [10]: 55% | viability, T/C [11]: 44.7% | viability, T/C [12]: 21.4% | viability, T/C [13]: 87.8% | viability, T/C [14]: 78.1% | viability, T/C [15]: 59.8% | viability, T/C [16]: 59.5% | viability, T/C [17]: 40.2% | viability, T/C [18]: 18.1% | viability, T/C [19]: 87.4% | viability, T/C [20]: 75.3% | viability, T/C [21]: 54.4% | viability, T/C [22]: 48.1% | viability, T/C [23]: 36.8% | viability, T/C [24]: 20.5% | viability, T/C [25]: 86.6% | viability, T/C [26]: 74.6% | viability, T/C [27]: 49.7% | viability, T/C [28]: 48% | viability, T/C [29]: 37.4% | viability, T/C [30]: 17.6% | viability, T/C [31]: 85.9% | viability, T/C [32]: 68.5% | viability, T/C [33]: 49.1% | viability, T/C [34]: 48.7% | viability, T/C [35]: 41% | viability, T/C [36]: 18.3%
